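These data come from cells grown in 96-well plates and exposed to compound for 48 hours at five concentrations. GI50 = concentration required for 50% inhibition of growth. TGI: concentration producing complete growth inhibition.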
Columns and labels:
Assay in all cases: growth of human tumour cells (NCI), 48 h
[1] = test system: 786-0 renal
[2] = test system: A498 renal
[3] = test system: A549 NSCLC
[4] = test system: ACHN renal
[5] = test system: BT-549 breast
[6] = test system: CAKI-1 renal
[7] = test system: CCRF-CEM leukemia
[8] = test system: COLO 205 colon
[9] = test system: DU-145 prostate
[10] = test system: HCC-2998 colon
[11] = test system: HCT-116 colon
[12] = test system: HCT-15 colon
[13] = test system: HL-60(TB) leukemia
[14] = test system: HOP-62 NSCLC
[15] = test system: HOP-92 NSCLC
[16] = test system: HS 578T breast
[17] = test system: HT29 colon
[18] = test system: IGROV1 ovarian
[19] = test system: K-562 leukemia
[20] = test system: KM12 colon
[21] = test system: LOX IMVI melanoma
[22] = test system: M14 melanoma
[23] = test system: MALME-3M melanoma
[24] = test system: MCF7 breast
[25] = test system: MDA-MB-231 breast
[26] = test system: MDA-MB-435
[27] = test system: MOLT-4 leukemia
[28] = test system: NCI-H226 lung
[29] = test system: NCI-H23 lung
[30] = test system: NCI-H460 lung
[31] = test system: NCI-H522 lung
[32] = test system: NCI/ADR-RES ovarian
[33] = test system: OVCAR-3 ovarian
[34] = test system: OVCAR-4 ovarian
[35] = test system: OVCAR-5 ovarian
[36] = test system: OVCAR-8 ovarian
[37] = test system: PC-3 prostate
[38] = test system: RPMI-8226 leukemia
[39] = test system: RXF 393 renal
[40] = test system: SF-268 CNS
[41] = test system: SF-295 CNS
[42] = test system: SF-539 CNS
[43] = test system: SK-MEL-2 melanoma
[44] = test system: SK-MEL-28 melanoma
[45] = test system: SK-MEL-5 melanoma
[46] = test system: SK-OV-3 ovarian
[47] = test system: SN12C renal
[48] = test system: SNB-19 CNS
[49] = test system: SNB-75 CNS
[50] = test system: SR leukemia
[51] = test system: SW-620 colon
[52] = test system: T-47D breast
[53] = test system: TK-10 renal
[54] = test system: U251 CNS
[55] = test system: UACC-257 melanoma
[56] = test system: UACC-62 melanoma
[57] = test system: UO-31 renal

N#Cc1ncc(-c2ccc(C(F)(F)F)cc2)c(NCc2cc(C(F)(F)F)cc(C(F)(F)F)c2)n1
GI50 [1]: 6.39 µM | TGI [1]: 96.3 µM | GI50 [2]: 2.08 µM | TGI [2]: 7.71 µM | GI50 [3]: 3.11 µM | TGI [3]: 21.1 µM | GI50 [4]: 3.62 µM | TGI [4]: > 100 µM | GI50 [5]: 5.88 µM | TGI [5]: > 100 µM | GI50 [6]: 3.6 µM | TGI [6]: 61.9 µM | GI50 [7]: 2.26 µM | TGI [7]: 49.8 µM | GI50 [8]: 2.24 µM | TGI [8]: 4.57 µM | GI50 [9]: 5.19 µM | TGI [9]: > 100 µM | GI50 [10]: 4.17 µM | TGI [10]: > 100 µM | GI50 [11]: 2.93 µM | TGI [11]: > 100 µM | GI50 [12]: 3.52 µM | TGI [12]: > 100 µM | GI50 [13]: 2.36 µM | TGI [13]: 5.76 µM | GI50 [14]: 4.73 µM | TGI [14]: 39.2 µM | GI50 [15]: 2.14 µM | TGI [15]: 5.74 µM | GI50 [16]: 3.08 µM | TGI [16]: 59.8 µM | GI50 [17]: 3.27 µM | TGI [17]: > 100 µM | GI50 [18]: 5.95 µM | TGI [18]: > 100 µM | GI50 [19]: 3.74 µM | TGI [19]: > 100 µM | GI50 [20]: 3.17 µM | TGI [20]: 10.1 µM | GI50 [21]: 3.02 µM | TGI [21]: 16.5 µM | GI50 [22]: 5.19 µM | TGI [22]: > 100 µM | GI50 [23]: 2.98 µM | TGI [23]: 8.89 µM | GI50 [24]: 2.74 µM | TGI [24]: > 100 µM | GI50 [25]: 3.17 µM | TGI [25]: 12.6 µM | GI50 [26]: 3.42 µM | TGI [26]: > 100 µM | GI50 [27]: 3.17 µM | TGI [27]: 9.79 µM | GI50 [28]: 4.85 µM | TGI [28]: > 100 µM | GI50 [29]: 3.22 µM | TGI [29]: 23.8 µM | GI50 [30]: 3.02 µM | TGI [30]: 10.2 µM | GI50 [31]: 2.92 µM | TGI [31]: 9.86 µM | GI50 [32]: 3.23 µM | TGI [32]: 65.8 µM | GI50 [33]: 3.8 µM | TGI [33]: 22.7 µM | GI50 [34]: 3.33 µM | TGI [34]: > 100 µM | GI50 [35]: 8.9 µM | TGI [35]: > 100 µM | GI50 [36]: 3.69 µM | TGI [36]: > 100 µM | GI50 [37]: 2.42 µM | TGI [37]: 8.48 µM | GI50 [38]: 2.29 µM | TGI [38]: 5.87 µM | GI50 [39]: 3.37 µM | TGI [39]: 20.1 µM | GI50 [40]: 8.17 µM | TGI [40]: > 100 µM | GI50 [41]: 2.78 µM | TGI [41]: 29.1 µM | GI50 [42]: 8.5 µM | TGI [42]: > 100 µM | GI50 [43]: 2.89 µM | TGI [43]: 7.15 µM | GI50 [44]: 5.17 µM | TGI [44]: > 100 µM | GI50 [45]: 3.91 µM | TGI [45]: 15 µM | GI50 [46]: 5.23 µM | TGI [46]: 47.3 µM | GI50 [47]: 3.54 µM | TGI [47]: > 100 µM | GI50 [48]: 4.84 µM | TGI [48]: 63.3 µM | GI50 [49]: 3.19 µM | TGI [49]: 68.8 µM | GI50 [50]: 2.97 µM | TGI [50]: 13.8 µM | GI50 [51]: 3.13 µM | TGI [51]: > 100 µM | GI50 [52]: 3.35 µM | TGI [52]: > 100 µM | GI50 [53]: 5.84 µM | TGI [53]: 56 µM | GI50 [54]: 3.66 µM | TGI [54]: 53.5 µM | GI50 [55]: 3.06 µM | TGI [55]: 9.92 µM | GI50 [56]: 3.93 µM | TGI [56]: > 100 µM | GI50 [57]: 2.89 µM | TGI [57]: 54.4 µM

Cn1cc(C2=C(c3cccc(N)c3)C(=O)NC2=O)c2ccccc21
GI50 [1]: 14 µM | TGI [1]: > 25 µM | GI50 [2]: 1.13 µM | TGI [2]: > 6.7 µM | GI50 [3]: 14.1 µM | TGI [3]: > 25 µM | GI50 [4]: 5.85 µM | TGI [4]: > 25 µM | GI50 [5]: > 19.3 µM | TGI [5]: > 25 µM | GI50 [6]: 13 µM | TGI [6]: > 25 µM | GI50 [7]: 11.2 µM | TGI [7]: > 25 µM | GI50 [8]: 10.8 µM | TGI [8]: > 25 µM | GI50 [9]: 19 µM | TGI [9]: > 25 µM | GI50 [10]: > 25 µM | TGI [10]: > 25 µM | GI50 [11]: 7.94 µM | TGI [11]: > 25 µM | GI50 [12]: 12.8 µM | TGI [12]: > 25 µM | GI50 [13]: 11.4 µM | TGI [13]: > 25 µM | GI50 [14]: 9.5 µM | TGI [14]: > 25 µM | GI50 [15]: > 25 µM | TGI [15]: > 25 µM | GI50 [16]: 1.34 µM | TGI [16]: > 25 µM | GI50 [17]: 13.1 µM | TGI [17]: > 25 µM | GI50 [18]: > 22.4 µM | TGI [18]: > 25 µM | GI50 [19]: 8.86 µM | TGI [19]: > 25 µM | GI50 [20]: 7.95 µM | TGI [20]: > 20 µM | GI50 [21]: 8.76 µM | TGI [21]: > 25 µM | GI50 [22]: > 25 µM | TGI [22]: > 25 µM | GI50 [23]: > 25 µM | TGI [23]: > 25 µM | GI50 [24]: 4.19 µM | TGI [24]: > 25 µM | GI50 [25]: 4.52 µM | TGI [25]: > 25 µM | GI50 [26]: 18.7 µM | TGI [26]: > 25 µM | GI50 [27]: 14.1 µM | TGI [27]: > 25 µM | GI50 [28]: 10 µM | TGI [28]: > 25 µM | GI50 [29]: 20.9 µM | TGI [29]: > 25 µM | GI50 [30]: 13.6 µM | TGI [30]: > 25 µM | GI50 [31]: 15.5 µM | TGI [31]: > 25 µM | GI50 [32]: > 19.7 µM | TGI [32]: > 25 µM | GI50 [33]: 5.67 µM | TGI [33]: > 25 µM | GI50 [34]: > 25 µM | TGI [34]: > 25 µM | GI50 [35]: > 25 µM | TGI [35]: > 25 µM | GI50 [36]: 17.4 µM | TGI [36]: > 25 µM | GI50 [37]: 14.8 µM | TGI [37]: > 25 µM | GI50 [38]: > 21.4 µM | TGI [38]: > 25 µM | GI50 [39]: 3.63 µM | TGI [39]: > 17.7 µM | GI50 [40]: 24.6 µM | TGI [40]: > 25 µM | GI50 [41]: 3.93 µM | TGI [41]: > 25 µM | GI50 [42]: 4.07 µM | TGI [42]: > 25 µM | GI50 [43]: 14.3 µM | TGI [43]: > 25 µM | GI50 [44]: > 25 µM | TGI [44]: > 25 µM | GI50 [45]: 9.66 µM | TGI [45]: > 25 µM | GI50 [46]: > 19 µM | TGI [46]: > 25 µM | GI50 [47]: 13.7 µM | TGI [47]: > 25 µM | GI50 [48]: > 25 µM | TGI [48]: > 25 µM | GI50 [49]: 0.0779 µM | TGI [49]: > 25 µM | GI50 [50]: 9.03 µM | TGI [50]: 24.8 µM | GI50 [51]: 17.8 µM | TGI [51]: > 25 µM | GI50 [52]: 14.3 µM | TGI [52]: > 25 µM | GI50 [53]: > 25 µM | TGI [53]: > 25 µM | GI50 [54]: 10.4 µM | TGI [54]: > 25 µM | GI50 [55]: > 25 µM | TGI [55]: > 25 µM | GI50 [56]: 12.6 µM | TGI [56]: > 25 µM | GI50 [57]: 14.1 µM | TGI [57]: > 25 µM
